Assay results taken from PMC5300203, “O-prenylated 3-carboxycoumarins as a novel class of 15-LOX-1 inhibitors” (PLoS ONE, 2017).
Where two headings read alike, the source gives them in different places.

Columns and labels:
[1] = target: T1, human 15-LOX-1 (Homo sapiens, UniProt P16050); assay: Lipoxygenase inhibitory assessment (DMAB-MBTH peroxide method, linoleic acid substrate); assay type: biochemical
T1 construct: Human 15-LOX-1 was prepared from isolated human eosinophil based on the procedure reported by Sigal et al; from tissue; host or cells: eosinophils purified from blood of hypereosinophilic human donors; 100,000 g supernatant, 30% and 60% ammonium sulfate pellets
T1 sequence (P16050 1-662): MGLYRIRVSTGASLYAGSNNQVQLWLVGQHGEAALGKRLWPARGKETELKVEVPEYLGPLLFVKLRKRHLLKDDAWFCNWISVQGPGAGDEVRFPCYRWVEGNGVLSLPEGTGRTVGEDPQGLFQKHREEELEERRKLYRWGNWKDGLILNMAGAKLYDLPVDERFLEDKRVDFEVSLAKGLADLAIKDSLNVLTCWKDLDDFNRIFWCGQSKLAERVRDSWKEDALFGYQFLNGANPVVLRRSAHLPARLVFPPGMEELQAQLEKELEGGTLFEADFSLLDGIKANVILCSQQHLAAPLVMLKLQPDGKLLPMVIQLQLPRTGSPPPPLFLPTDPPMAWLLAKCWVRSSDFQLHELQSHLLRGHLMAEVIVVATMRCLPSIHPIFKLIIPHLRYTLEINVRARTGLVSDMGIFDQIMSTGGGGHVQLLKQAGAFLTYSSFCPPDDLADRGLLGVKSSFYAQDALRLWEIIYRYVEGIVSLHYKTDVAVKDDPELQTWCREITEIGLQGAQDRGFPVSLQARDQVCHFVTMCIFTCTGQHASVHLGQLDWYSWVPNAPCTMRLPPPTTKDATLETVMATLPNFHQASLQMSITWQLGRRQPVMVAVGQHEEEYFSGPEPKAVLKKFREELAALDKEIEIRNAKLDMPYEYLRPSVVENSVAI
Protocol: The inhibitory activity of the synthetic compounds against human 15-LOX-1 was determined utilizing modified catalytic oxidative coupling of 3-methyl-2-benzothiazolinone (MBTH) with 3-(dimethylamino)benzoic acid (DMAB) as reported in previous studies. In this method, the basis for the determination of lipoxygenase activity is the measurement of peroxide concentration. Human 15-LOX-1 was prepared from isolated human eosinophil based on the procedure reported by Sigal et al. […] Because of the instability of the purified 15-LOX-1, the crude form of the enzyme was utilized. Eosinophils from blood of hypereosinophilic donors (8–11% eosinophils) were purified to more than 85% through “hypotonic lysis and centrifugation” method reported by Samoszuk.
Linoleic acid and two assay solutions (A and B) were prepared in advance.
Solution A was 50 mM DMAB in an l00 mM phosphate buffer (pH 7.0). Solution B was a mixture of l0 mM MBTH (3 mL), hemoglobin (5 mg/mL, 3 mL) in 50 mM phosphate buffer at pH 5.0 (25 ml). A linoleic acid solution was prepared by mixing 5.6 mg of linoleic acid (Sigma Aldrich, L1376) with 0.5 mL methanol and then diluted with KOH 100 mM to a final volume of 5 mL (4 mM).
In the standard assay, the sample in DMSO (12.5 μL), 15-LOX-1 (104 units/mL; 30 μL) and phosphate buffer, pH 7.0 (50 mM; 435 μL) were mixed in 48 well plate and perincubation was carried out for 10 min at 30°C. A control test was done with the same volume of ethanol. After the preincubation, linoleic acid solution (25 μL) was added to start the peroxidation reaction at 30°C, and, 10 min later, solution A (135 μL) and then solution B (65 μL) was added to start the color formation. Further, 3 min later, 100 μL of a 2% SDS solution was added to terminate the reaction. The absorbance at 598 nm was compared with the control test. These experiments were performed in triplicate. The data analysis was performed using GraphPad Prism 5.01.

[2] = human 15-LOX-1 from eosinophils (crude), linoleic acid, 30°C, ± SD (n = 3), read-out: IC50
[3] = human 15-LOX-1 from eosinophils (crude), linoleic acid, 30°C, ± SD (n = 3)

Compound	IC50 [1, 2]	melting point	IC50 [1]	lower lipoxygenase inhibitory potency compared to the corresponding carboxylate-off analog ([1]; 3-carboxycoumarin vs farnesyloxycoumarin without carboxylic acid (d vs d'))	IC50 [1, 3]	higher lipoxygenase inhibitory activity compared to the corresponding carboxylate-off analog ([1]; 3-carboxycoumarin vs farnesyloxycoumarin without carboxylic acid (4d vs 4d'))
CC(C)=CCOc1cccc2oc(=O)c(C(=O)O)cc12 [Compound 4b, 5-(3-methylbut-2-enyloxy)-2-oxo-2H-chromene-3-carboxylic acid]	62.5 ± 5.9 µM	85 to 86 °C	–	–	–	–
CC(C)=CCC/C(C)=C/COc1cccc2oc(=O)c(C(=O)O)cc12 [Compound 4c, 5-((E)-3,7-dimethylocta-2,6-dienyloxy)-2-oxo-2H-chromene-3-carboxylic acid]	4.8 ± 0.55 µM	49 to 50 °C	–	–	–	–
CC(C)=CCC/C(C)=C/CC/C(C)=C/COc1ccc2oc(=O)c(C(=O)O)cc2c1 [Compound 8d, 6-((2E,6E)-3,7,11-trimethyldodeca-2,6,10-trienyloxy)-2-oxo-2H-chromene-3-carboxylic acid]	–	98 to 99 °C	10.4 ± 2.1 µM	10 folds	1.0 ± 0.06 µM	–
CC(C)=CCC/C(C)=C/CC/C(C)=C/COc1cccc2oc(=O)c(C(=O)O)cc12 [Compound 4d, 5-((2E,6E)-3,7,11-trimethyldodeca-2,6,10-trienyloxy)-2-oxo-2H-chromene-3-carboxylic acid]	–	39 to 40 °C	0.74 ± 0.05 µM	–	1.6 ± 0.08 µM	2 folds
C=CCOc1cccc2oc(=O)c(C(=O)O)cc12 [Compound 4a, 5-(allyloxy)-2-oxo-2H-chromene-3-carboxylic acid]	93.5 ± 7.6 µM	115 to 117 °C	–	–	–	–
Cc1nc(N2CCN(C)CC2)nc2c1Sc1ccccc1N2 [Compound 4-MMPB, 4-methyl-2-(4-methylpiperazinyl)pyrimido[4,5-b]benzothiazine, reference compound]	16.8 ± 1.1 µM	–	–	–	–	–

Further lines, with some results ahead:

IC50 [1, 2]	melting point	Compound	IC50 [1]	lower lipoxygenase inhibitory potency compared to the corresponding carboxylate-off analog ([1]; 3-carboxycoumarin vs farnesyloxycoumarin without carboxylic acid (d vs d'))	IC50 [1, 3]	higher lipoxygenase inhibitory activity compared to the corresponding carboxylate-off analog ([1]; 3-carboxycoumarin vs farnesyloxycoumarin without carboxylic acid (4d vs 4d'))
20.4 ± 2.2 µM	100 to 101 °C	CC(C)=CCC/C(C)=C/COc1cccc2cc(C(=O)O)c(=O)oc12 [Compound 18c, 8-((E)-3,7-dimethylocta-2,6-dienyloxy)-2-oxo-2H-chromene-3-carboxylic acid]	–	–	–	–
81.3 ± 5.3 µM	147 to 148 °C	CC(C)=CCOc1ccc2cc(C(=O)O)c(=O)oc2c1 [Compound 12b, 7-(3-methylbut-2-enyloxy)-2-oxo-2H-chromene-3-carboxylic acid]	–	–	–	–
296 ± 26.3 µM	167 to 168 °C	C=CCOc1ccc2oc(=O)c(C(=O)O)cc2c1 [Compound 8a, 6-(allyloxy)-2-oxo-2H-chromene-3-carboxylic acid]	–	–	–	–
293 ± 20.3 µM	198 to 200 °C	C=CCOc1cccc2cc(C(=O)O)c(=O)oc12 [Compound 18a, 8-(allyloxy)-2-oxo-2H-chromene-3-carboxylic acid]	–	–	–	–
–	87 to 90 °C	CC(C)=CCC/C(C)=C/CC/C(C)=C/COc1ccc2cc(C(=O)O)c(=O)oc2c1 [Compound 12d, 7-((2E,6E)-3,7,11-trimethyldodeca-2,6,10-trienyloxy)-2-oxo-2H-chromene-3-carboxylic acid]	–	–	–	–
12.1 ± 0.91 µM	118 to 119 °C	CC(C)=CCC/C(C)=C/COc1ccc2cc(C(=O)O)c(=O)oc2c1 [Compound 12c, 7-((E)-3,7-dimethylocta-2,6-dienyloxy)-2-oxo-2H-chromene-3-carboxylic acid]	–	–	–	–
263 ± 23 µM	143 to 144 °C	CC(C)=CCOc1cccc2cc(C(=O)O)c(=O)oc12 [Compound 18b, 8-(3-methylbut-2-enyloxy)-2-oxo-2H-chromene-3-carboxylic acid]	–	–	–	–
114 ± 10.1 µM	205 to 207 °C	C=CCOc1ccc2cc(C(=O)O)c(=O)oc2c1 [Compound 12a, 7-(allyloxy)-2-oxo-2H-chromene-3-carboxylic acid]	–	–	–	–
21.5 ± 1.6 µM	130 to 131 °C	CC(C)=CCC/C(C)=C/COc1ccc2oc(=O)c(C(=O)O)cc2c1 [Compound 8c, Ethyl 6-((E)-3,7-dimethylocta-2,6-dienyloxy)-2-oxo-2H-chromene-3-carboxylic acid]	–	–	–	–
227 ± 22.1 µM	158 to 159 °C	CC(C)=CCOc1ccc2oc(=O)c(C(=O)O)cc2c1 [Compound 8b, 6-(3-methylbut-2-enyloxy)-2-oxo-2H-chromene-3-carboxylic acid]	–	–	–	–
